Measured values reported in patent US20040059104A1, “Nucleotide mimics and their prodrugs” (priority 2002, published 2004).
Like-named read-outs stand apart in the source and are kept apart here.

What was measured:
[1] = Mammalian cell growth inhibition assay (MTT cytotoxicity); assay type: cell-based, Human; settings: human; CCRF-CEM cells, 72 hr, MTT; read-out: Cytotoxicity IC50 (antiproliferative effect)
Description: (§1) The assays employed for determining the cytotoxicity of the nucleotide mimics of the present invention to mammalian cells are described below.
(§2) Human CCRF-CEM cells were obtained from American Tissue Culture Collection (ATCC) and grown according to ATCC specifications. […] CEM cells were grown at 37° C. in a 95% humidified environment and 5% CO2 atmosphere.
(§3) MTT is water soluble tetrazolin salt that is converted to an insoluble purple formazan by active mitochondrial dehydrogenases of living cells. […] Conversion of MTT into the insoluble formazan by non-treated control or treated cells was monitored at 540 nm.
(§4) CCRF-CEM cells (3×10^4) were plated in 96-well plates in RPMI media. The next day, cells were incubated with different concentrations (0-200 μM) of the nucleotide mimics of the present invention for 72 hr. Following treatment, MTT (2 mg/ml in PBS) dye was added to each well so that the final concentration was 0.5 mg/ml and then incubated for 4 hr at 37° C. Media and MTT dye were removed without disturbing the cells and 100% DMSO was added to dissolve the precipitate. After a 10 minute incubation at room temperature, the optical density values were measured at 540 nm, using the Spectra Max Plus plate reader. Survival was expressed as the percentage of viable cells in treated samples relative to non-treated control cells.

Staphylococcus aureus = assay: Antimicrobial assay, minimal inhibitory concentration; assay type: cell-based; settings: Staphylococcus aureus, read-out: S. aureus MIC
Summary of the method: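 E. coli and S. aureus grown overnight at 37° C were first screened by disc diffusion on Nutrient Broth agar lawns. MIC was then read after overnight incubation at 37° C as the lowest compound concentration giving no increase in absorbance at 600 nm.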

in vitro = settings: bovine, serum, Half-Life, Serum Half-Lives of Gemcitibine Diphosphate Mimics and Their Prodrugs
CCRF-CEM cells = assay: Mammalian cell growth inhibition assay (MTT cytotoxicity); assay type: cell-based, Human
Description: as §1, §2, §3, §4

Nc1ccn([C@@H]2O[C@H](COP(=O)(O)CP(=O)(O)O)[C@@H](O)C2(F)F)c(=O)n1 [Compound 5, 2′-Deoxy-2′,2′-difluorocytidine-5′-methylenediphosphonate]
IC50 at 72 h [1]: 4800 nM | MIC (Staphylococcus aureus; overnight at 37° C., tested 0-200 μg/ml, NA = Not active): > 200 µg/mL | MIC (Staphylococcus aureus; value in brackets beside the μg/ml value): > 475 µM | half-life at 500 μM (in vitro): > 48 h

CC(C)(C)C(=O)SCCOP(=O)(CP(=O)(OCCSC(=O)C(C)(C)C)OCC1OC(n2ccc(N)nc2=O)C(F)(F)C1O)OCCSC(=O)C(C)(C)C (stereo not drawn) [Compound 77, 2′-deoxy-2′,2′-difluorocytidine 5′-tri-O—(S-pivaloyl-2-thioethyl)-α,β-methylenediphosphonate]
IC50 (CCRF-CEM cells): 100 nM

Nc1ccn([C@@H]2O[C@H](CO)[C@@H](O)C2(F)F)c(=O)n1 [Gemcitabine, 2′-deoxy-2′,2′-difluorocytidine, reference compound]
IC50 at 72 h [1]: 35 nM
